From patent US10646469B2, “Substituted indole derivatives as dengue viral replication inhibitors” (Janssen Pharmaceuticals, Inc., priority 2016, dated 2020)

Legend:
DENV-2 16681 strain = assay: DENV-2 antiviral assay (eGFP-labeled virus in Vero cells); type: cell-based, Dengue virus; details: DENV-2 16681 eGFP, MOI 0.5, 3 days
Method: The antiviral activity of all the compounds of the invention was tested against the DENV-2 16681 strain which was labeled with enhanced green fluorescent protein (eGPF). The culture medium consists of minimal essential medium supplemented with 2% of heat-inactivated fetal calf serum, 0.04% gentamycin (50 mg/mL) and 2 mM of L-glutamine. Vero cells, obtained from ECACC, were suspended in culture medium and 25 μL was added to 384-well plates (2500 cells/well), which already contain the antiviral compounds. Typically, these plates contain a 5-fold serial dilution of 9 dilution steps of the test compound at 200 times the final concentration in 100% DMSO (200 nL). […] Finally, each plate contains wells which are assigned as virus controls (containing cells and virus in the absence of compound), cell controls (containing cells in the absence of virus and compound) and medium controls (containing medium in the absence of cells, virus and compounds). To the wells assigned as medium control, 25 μL of culture medium was added instead of Vero cells. Once the cells were added to the plates, the plates were incubated for 30 minutes at room temperature to allow the cells to distribute evenly within the wells. Next, the plates were incubated in a fully humidified incubator (37° C., 5% CO2) until the next day. Then, DENV-2 strain 16681, labeled with eGFP, was added at a multiplicity of infection (MOI) of 0.5. Therefore, 15 μL of virus suspension was added to all the wells containing test compound and to the wells assigned as virus control. In parallel, 15 μL of culture medium was added to the medium and cell controls. Next, the plates were incubated for 3 days in a fully humidified incubator (37° C., 5% CO2). At the day of the read out, the eGFP fluorescence was measured using an automated fluorescence microscope at 488 nm (blue laser). Using an in-house LIMS system, inhibition dose response curves for each compound were calculated and the half maximal effective concentration (EC50) was determined. Therefore, the percent inhibition (I) for every test concentration is calculated using the following formula: I=100*([…])/(SVC−SCC); ST, SCC and SVC are the amount of eGFP signal in the test compound, cell control and virus control wells, respectively. The EC50 represents the concentration of a compound at which the virus replication is inhibited with 50%, as measured by a 50% reduction of the eGFP fluorescent intensity compared to the virus control. The EC50 is calculated using linear interpolation (Table 1).

DENV-4 strain H241 = assay: Tetravalent RT-qPCR assay, serotype 4; type: cell-based; details: Dengue virus, DENV4, 72 h; RT-qPCR serotype 4 H241, Protocol A, Vero cells, day 3
Method: (§1) The antiviral activity of the compounds of the invention was tested against DENV-1 strain TC974 #666 (NCPV), DENV-2 strain 16681, DENV-3 strain H87 (NCPV) and DENV-4 strain H241 (NCPV) in a RT-qPCR assay. Therefore, Vero cells were infected with either DENV-1, or -2, or -3, or -4 in the presence or absence of test compounds. At day 3 post-infection, the cells were lysed and cell lysates were used to prepare cDNA of both a viral target (the 3′UTR of DENV; Table 2) and cellular reference gene (β-actin, Table 2). Subsequently, a duplex real time PCR was performed on a Lightcycler480 instrument. The generated Cp value is inversely proportional to the amount of RNA expression of these targets. Inhibition of DENV replication by a test compound results in a shift of Cp's for the 3′UTR gene. On the other hand, if a test compound is toxic to the cells, a similar effect on β-actin expression will be observed. The comparative ΔΔCp method is used to calculate EC50, which is based on the relative gene expression of the target gene (3′UTR) normalized with the cellular housekeeping gene (β-actin). In addition, CC50 values are determined based on the Cp values acquired for the housekeeping gene β-actin.
(§2) The culture medium consisted of minimal essential medium supplemented with 2% of heat-inactivated fetal calf serum, 0.04% gentamycin (50 mg/mL) and 2 mM of L-glutamine. Vero cells, obtained from ECACC, were suspended in culture medium and 75 μL/well was added in 96-well plates (10000 cells/well), which already contain the antiviral compounds. […] In addition, each plate contains wells which are assigned as virus controls (containing cells and virus in the absence of compound) and cell controls (containing cells in the absence of virus and compound). Once the cells were added in the plates, the plates were incubated in a fully humidified incubator (37° C., 5% CO2) until the next day. Dengue viruses serotype-1, 2, 3 and 4 were diluted in order to obtain a Cp of ˜22-24 in the assay. Therefore, 25 μL of virus suspension was added to all the wells containing test compound and to the wells assigned as virus control. In parallel, 25 μL of culture medium was added to the cell controls. Next, the plates were incubated for 3 days in a fully humidified incubator (37° C., 5% CO2). After 3 days, the supernatant was removed from the wells and the cells were washed twice with ice-cold PBS (˜100 μL). The cell pellets within the 96-well plates were stored at −80° C. for at least 1 day. Next, RNA was extracted using the Cells-to-CT™ lysis kit, according to the manufacturer's guideline (Life Technologies). The cell lysates can be stored at −80° C. or immediately used in the reverse transcription step.
(§3) In preparation of the reverse transcription step, mix A (table 3A) was prepared and 7.57 μL/well was dispensed in a 96-well plate. After addition of 5 μL of the cell lysates, a five minute denaturation step at 75° C. was performed (table 3B). Afterwards, 7.43 μL of mix B was added (table 3C) and the reverse transcription step was initiated (table 3D) to generate cDNA.
(§4) Finally, a RT-qPCR mix was prepared, mix C (table 4A), and 22.02 μL/well was dispensed in 96-well LightCycler qPCR plates to which 3 μL of cDNA was added and the qPCR was performed according to the conditions in table 4B on a LightCycler 480.
(§5) Using the LightCycler software and an in-house LIMS system, dose response curves for each compound were calculated and the half maximal effective concentration (EC50) and the half maximal cytotoxic concentration (CC50) were determined (Tables 5-8).

Vero cells = assay: Toxicity on the same plates (ATPlite cell viability); details: Vero cells, same plates as DENV-2 antiviral assay
DENV-1 strain TC974 #666 = assay: Tetravalent RT-qPCR assay, serotype 1; type: cell-based; details: Dengue virus, DENV1, 72 h; RT-qPCR serotype 1 TC974#666, Protocol A, Vero cells, day 3
Method: as §1, §2, §3, §4, §5

DENV-3 strain H87 = assay: Tetravalent RT-qPCR assay, serotype 3; type: cell-based; details: Dengue virus, DENV3, 72 h; RT-qPCR serotype 3 H87, Protocol A, Vero cells, day 3
Method: as §1, §2, §3, §4, §5

[1] = Cytotoxicity in RT-qPCR assay (Cp of housekeeping gene β-actin); type: cell-based; details: African green monkey
Method: as §1, §2, §5

DENV-2 strain 16681 = assay: Tetravalent RT-qPCR assay, serotype 2; type: cell-based; details: Dengue virus, DENV2, 72 h; RT-qPCR serotype 2 16681, Protocol A, Vero cells, day 3
Method: as §1, §2, §3, §4, §5

[2] = Toxicity on the same plates (ATPlite cell viability); details: African green monkey, CC50, Vero cells, same plates as DENV-2 antiviral assay
[3] = RT-qPCR serotype 1 TC974#666, Protocol A
[4] = RT-qPCR serotype 2 16681, Protocol A
[5] = RT-qPCR serotype 3 H87, Protocol A
[6] = RT-qPCR serotype 4 H241, Protocol A
[7] = Dengue virus, DENV2, Vero, 72 h

Compound	EC50 (DENV-2 16681 strain) [nM]	EC50 (DENV-4 strain H241) [nM]	CC50 (Vero cells) [nM]	EC50 (DENV-1 strain TC974 #666) [nM]	EC50 (DENV-3 strain H87) [nM]	CC50 at 3 days [1, 3] [nM]	CC50 at 3 days [1, 4] [nM]	CC50 at 3 days [1, 5] [nM]	CC50 at 3 days [1, 6] [nM]	EC50 (DENV-2 strain 16681) [nM]	EC50 (DENV-2 16681 strain; [7]) [nM]	CC50 [2] [nM]
COc1cc(NC(C(=O)c2c[nH]c3cc(F)c(OC(F)(F)F)cc23)c2ccc(F)cc2OC)cc(OCCO)c1 (single isomer, unassigned) [Compound 7B, 2-(4-fluoro-2-methoxyphenyl)-1-(6-fluoro-5-(trifluoromethoxy)-1H-indol-3-yl)-2-((3-(2-hydroxyethoxy)-5-methoxyphenyl)amino)ethanone]	0.53	52	2400	1.2	8.2	> 2500	> 2500	> 2500	2100	0.55		
COc1cc(NC(C(=O)c2c[nH]c3ccc(OC(F)(F)F)cc23)c2ccc(F)cc2OC)cc(OCCO)c1 (single isomer, unassigned) [Compound 5B, 2-(4-fluoro-2-methoxyphenyl)-2-((3-(2-hydroxyethoxy)-5-methoxyphenyl)amino)-1-(5-(trifluoromethoxy)-1H-indol-3-yl)ethanone]	0.3	50	3300	0.77	6	> 2500	3200	> 2500	2400	0.36		
COc1cc(NC(C(=O)c2c[nH]c3c(C)cc(C(F)(F)F)cc23)c2ccc(F)cc2OC)cc(OCCO)c1 (single isomer, unassigned) [Compound 4B, 2-(4-fluoro-2-methoxyphenyl)-2-((3-(2-hydroxyethoxy)-5-methoxyphenyl)amino)-1-(7-methyl-5-(trifluoromethyl)-1H-indol-3-yl)ethanone]	0.46	51	2500	1.4	9.2	> 2500	> 2400	> 2500	> 2100	0.36		
COc1cc(NC(C(=O)c2c[nH]c3c(C)cc(C(F)(F)F)cc23)c2ccc(Cl)cc2OC)cc(OCCO)c1 (single isomer, unassigned) [Compound 12A, 2-(4-chloro-2-methoxyphenyl)-2-((3-(2-hydroxyethoxy)-5-methoxyphenyl)amino)-1-(7-methyl-5-(trifluoromethyl)-1H-indol-3-yl)ethanone]	0.16	30	2600	0.4	3.9	> 2500	> 2500	> 2500	> 2400	0.22		
COc1cc(NC(C(=O)c2c[nH]c3cc(OC)c(OC(F)(F)F)cc23)c2ccc(F)cc2OC)cc(OCCO)c1 (single isomer, unassigned) [Compound 6A, 2-(4-fluoro-2-methoxyphenyl)-2-((3-(2-hydroxyethoxy)-5-methoxyphenyl)amino)-1-(6-methoxy-5-(trifluoromethoxy)-1H-indol-3-yl)ethanone]	0.33	78	> 2500	2.6	12	> 2100	3900	> 2500	1500	0.55		
COc1cc(NC(C(=O)c2c[nH]c3ccc(OC(F)(F)F)cc23)c2ccc(Cl)cc2OC)cc(OCCO)c1 (single isomer, unassigned) [Compound 13A, 2-(4-chloro-2-methoxyphenyl)-2-((3-(2-hydroxyethoxy)-5-methoxyphenyl)amino)-1-(5-(trifluoromethoxy)-1H-indol-3-yl)ethanone]	0.14	20		0.51	3.5	1200	2600	> 2500	> 2500	0.2		
COc1cc(NC(C(=O)c2c[nH]c3cc(OC)c(OC(F)(F)F)cc23)c2ccc(Cl)cc2OC)cc(OCCO)c1 (racemic) [Compound 14, 2-(4-chloro-2-methoxyphenyl)-2-((3-(2-hydroxyethoxy)-5-methoxyphenyl)amino)-1-(6-methoxy-5-(trifluoromethoxy)-1H-indol-3-yl)ethanone]											0.34	3500
COc1cc(NC(C(=O)c2c[nH]c3ccc(C(F)(F)F)cc23)c2ccc(F)cc2OC)cc(OCCO)c1 (single isomer, unassigned) [Compound 1B, 2-(4-fluoro-2-methoxyphenyl)-2-((3-(2-hydroxyethoxy)-5-methoxyphenyl)amino)-1-(5-(trifluoromethyl)-1H-indol-3-yl)ethanone]	0.62	50		1.3	14	3300	3500	3200	2600	0.41		
COc1cc(NC(C(=O)c2c[nH]c3ccc(C(F)(F)F)cc23)c2ccc(Cl)cc2OC)cc(OCCO)c1 (racemic) [Compound 9, 2-(4-chloro-2-methoxyphenyl)-2-((3-(2-hydroxyethoxy)-5-methoxyphenyl)amino)-1-(5-(trifluoromethyl)-1H-indol-3-yl)ethanone]											0.29	2500
